In paper PMC4192606, “Agrobacterium Uses a Unique Ligand-Binding Mode for Trapping Opines and Acquiring A Competitive Advantage in the Niche Construction on Plant Host” (PLoS Pathogens, 2014):
Where “and” joins values, the source holds several entries; their conditions need not be identical. Equal values may be shown once.

Experiments:
NocT [1] = molecular target: T1, NocT (Agrobacterium fabrum, UniProt P35120); assay: KD measurement by intrinsic protein fluorescence titration, wild-type NocT; format: binding, Agrobacterium tumefaciens C58; settings: 25°C, 25 mM Tris-HCl pH 8.0, 150 mM NaCl, 5 µM protein, triplicates; for Kd: read-out: KD (fluorescence titration), NocT wt
T1 construct: The X-ray structures of the mature free-liganded NocT; made in house; host or cells: E. coli Rosetta pLysS
T1 sequence (P35120 26-283): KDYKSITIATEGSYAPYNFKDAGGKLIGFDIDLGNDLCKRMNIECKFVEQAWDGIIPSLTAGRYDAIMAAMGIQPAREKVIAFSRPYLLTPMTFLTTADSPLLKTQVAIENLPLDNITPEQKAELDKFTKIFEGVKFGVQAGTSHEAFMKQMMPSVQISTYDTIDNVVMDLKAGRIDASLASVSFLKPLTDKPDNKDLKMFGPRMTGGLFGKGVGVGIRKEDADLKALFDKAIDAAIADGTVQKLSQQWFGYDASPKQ
Description: (§1) Ligand-NocT interaction was monitored by autofluorescence by exciting the protein at a wavelength of 295 nm and monitoring the quenching of fluorescence emission of tryptophan residues at 340 nm. All experiments were performed at 25°C in 25 mM Tris-HCl pH 8.0 and 150 mM NaCl with a fixed amount of proteins (5 µM) and increasing concentrations of ligand using a SpectraMax M5 microplate reader (Molecular Devices). […] Fluorescence measurements were done in triplicates. The data were analysed using Origin 7 software and fitted to the equation f = ΔFluorescencemax * abs(x)/(KD+abs(x)).

NocT [2] = molecular target: T1, NocT; assay: KD measurement by isothermal titration calorimetry (ITC), wild-type NocT; format: binding, Agrobacterium tumefaciens C58
Description: ITC experiments were performed with an ITC200 isothermal titration calorimeter from MicroCal Llc (Northampton, MA). The experiments were carried out at 20°C. Protein concentration in the microcalorimeter cell (0.2 ml) varied from 100 to 150 µM. Nineteen injections of 2 µl of the ligand solution concentration from 1.5 to 1.6 mM were performed at intervals of 180 s while stirring at 1000 rpm. The experimental data were fitted to theoretical titration curves with software supplied by MicroCal (ORIGIN). This software uses the relationship between the heat generated by each injection and ΔH (enthalpy change in Kcal.mol^−1), Ka (the association binding constant in M^−1), n (the number of binding sites), total protein concentration and free and total ligand concentrations.

[3] = tested on: A. tumefaciens C58 nocT mutant; assay: Growth assay on opine as sole carbon and nitrogen source, nocT mutant; format: cell-based, Agrobacterium tumefaciens C58; settings: opine as sole source of carbon and nitrogen at 3 mM, AB medium, OD600 after 24 hours
Excerpt: (§2) The A. tumefaciens C58 derivatives carrying pTi-accR::Gm and pTi::Gm (used as C58-control in plant assay) in which the genes accR (atu6138) and atu6147 were disrupted by inserting a gentamicin resistance cassette were already constructed. The A. tumefaciens C58 derivatives harbouring the Ti-plasmid pTi-nos::Km, pTi-ocd::Gm, pTi-nocT::Gm were obtained by insertion of a gentamicin (Gm) or kanamycin (Km) resistance cassette into the genes nos ( = atu6015), ocd ( = atu6016), and nocT ( = atu6027) as described previously.
(§3) A. tumefaciens was cultivated at 30°C in Agrobacterium broth (AB) minimal medium supplemented with ammonium chloride (1 g/L) and mannitol (2 g/L) except when an alternative source of carbon and nitrogen is indicated, or in Luria-Bertani modified medium (LBm; NaCl 5 g/L). In growth assay nopaline and pyronopaline were added as a sole carbon and nitrogen source at 3 mM (ca 1 g/L). The antibiotics gentamycin and kanamycin were added at 25 µg/mL and 50 µg/mL, respectively.

[4] = tested on: A. tumefaciens C58 ocd mutant; assay: Growth assay on opine as sole carbon and nitrogen source, ocd mutant; format: cell-based, Agrobacterium tumefaciens C58; settings: opine as sole source of carbon and nitrogen at 3 mM, AB medium, OD600 after 24 hours
Excerpt: as §2, §3

NocT-M117S = molecular target: T2, NocT-M117S (Agrobacterium fabrum, UniProt P35120, M117S); assay: KD measurement by fluorescence titration, NocT-M117S mutant; format: binding, Agrobacterium tumefaciens C58
T2 construct: The X-ray structures of the mature free-liganded NocT; made in house; host or cells: E. coli Rosetta pLysS
T2 sequence (P35120 26-283 M117S): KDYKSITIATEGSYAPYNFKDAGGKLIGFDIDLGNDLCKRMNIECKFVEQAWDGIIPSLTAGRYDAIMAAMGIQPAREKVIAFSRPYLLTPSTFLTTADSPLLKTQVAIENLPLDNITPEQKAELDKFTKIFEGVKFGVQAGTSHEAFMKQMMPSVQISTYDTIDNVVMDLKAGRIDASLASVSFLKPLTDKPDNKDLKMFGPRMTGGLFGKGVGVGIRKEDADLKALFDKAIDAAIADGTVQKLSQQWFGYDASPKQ
Excerpt: (§4) Using 5′-[…] and 5′-[…] primers, nocT gene of A. tumefaciens C58 was amplified and then cloned into pET-9aSN1 expression vector (a gift from S. Chéruel, IBBMC, University Paris Sud, Orsay, France). The pET-9aSN1-nocT was used as template to generate directed mutations with QuikChange II XL directed mutagenesis kit (Stratagene). For mutations Met117 to Ser (M117S) and Asn (M117N), the synthetic forward primers 5′–[…] and 5′-[…] and their reverse complemented primers were designed. The nucleotide sequence of all alleles was confirmed by DNA-sequence analysis (GATC, France).
as §1

NocT-M117N = molecular target: T3, NocT-M117N (Agrobacterium fabrum, UniProt P35120, M117N); assay: KD measurement by fluorescence titration, NocT-M117N mutant; format: binding, Agrobacterium tumefaciens C58
T3 construct: The X-ray structures of the mature free-liganded NocT; made in house; host or cells: E. coli Rosetta pLysS
T3 sequence (P35120 26-283 M117N): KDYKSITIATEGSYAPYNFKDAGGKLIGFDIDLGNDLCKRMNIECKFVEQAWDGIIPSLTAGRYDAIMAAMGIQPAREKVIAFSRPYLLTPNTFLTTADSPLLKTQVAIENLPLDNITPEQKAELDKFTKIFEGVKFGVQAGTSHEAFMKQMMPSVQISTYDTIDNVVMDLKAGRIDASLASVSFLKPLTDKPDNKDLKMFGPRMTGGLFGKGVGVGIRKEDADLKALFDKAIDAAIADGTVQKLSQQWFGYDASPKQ
Excerpt: as §4, §1

[5] = 20°C, protein 100 to 150 µM, triplicates

N=C(N)NCCC[C@H](N)C(=O)O [arginine, reference compound]
KD (fluorescence titration), NocT wt (NocT [1]): no interaction | KD (ITC), NocT wt (NocT [2]; [5]): no interaction

N[C@@H](Cc1c[nH]cn1)C(=O)O [histidine, reference compound]
KD (ITC), NocT wt (NocT [2]; [5]): no interaction

N=C(N)NCCCC(NC(CCC(=O)O)C(=O)O)C(=O)O (centres unmarked) [nopaline]
Kd (NocT [1]): 3700 nM | growth of nocT mutant [3]: could not grow | growth of ocd mutant [4]: strongly impaired

N=C(N)NCCCC(C(=O)O)N1C(=O)CCC1C(=O)O (centres unmarked) [pyronopaline]
Kd (NocT [1]): 570 nM and 600 nM | TΔS of binding (ITC) (NocT [2]; 20°C): 12.6 kcal/mol | Kd (NocT [2]; 20°C, protein 100 to 150 µM, triplicates, read-out: KD (ITC), NocT wt): 580 ± 50 nM | enthalpy of binding (ITC) (NocT [2]; positive enthalpy): 2.1 kcal/mol | Kd (NocT-M117S): 37800 ± 9000 nM | KD fold higher than that of the WT protein, NocT-M117S (NocT-M117S; mutant vs WT NocT): 76 fold | Kd (NocT-M117N): 39900 ± 7000 nM | KD fold higher than that of the WT protein, NocT-M117N (NocT-M117N; mutant vs WT NocT): 76 fold | growth of nocT mutant [3]: could not grow | growth of ocd mutant [4]: strongly impaired

NCCC[C@H](N)C(=O)O [ornithine, reference compound]
KD (ITC), NocT wt (NocT [2]; [5]): no interaction
